Laboratory results: patent US20210060165A1, “Light-Controlled Antibacterial Agent Composed of Linear Cationic Oligopeptide and Multi-arm B-Cyclodextrin” (JILIN UNIVERSITY, priority 2019, published 2021)

How the values were obtained:
Experiment in all cases: growth curve (OD600) in LB liquid culture medium
Type in all cases: cell-based
Conditions in all cases: separate or as aggregates
Staphylococcus aureus = system: Staphylococcus aureus
Experimental: (§1) Preparation of LB liquid culture medium: dissolving 1-10 g of peptone, 0.5-5 g of yeast extract and 1-10 g of sodium chloride in 100-980 mL of redistilled water, and performing high temperature sterilization on same at 121° C. for 20 min to obtain a fresh LB liquid culture medium.
(§2) Picking bacterial strains (gram-negative bacteria such as Escherichia coli, […], Pseudomonas aeruginosa, and gram-positive bacteria such as Staphylococcus aureus) into 20-30 mL of (containing 20-25 μL of ampicillin) the above fresh LB liquid culture medium, placing in a constant temperature shaker with a revolution of 180 rpm and a temperature of 37° C. for culture for 11-15 h, thus obtaining the LB culture solution containing bacterial strains; then diluting the above LB culture solution containing bacteria strains with a blank LB liquid culture medium to an OD600 (OD600 refers to the light absorption value of the bacteria strain culture solution at 600 nm) about 0.035.
(§3) Antibacterial property of cross-linked aggregates in LB liquid culture medium: adding the diluted LB culture solution (the LB culture solution contains bacteria and ampicillin) containing bacterial strains into a clean test tube, adding the aqueous solution of the light-controlled antibacterial agent composed of the linear cationic oligopeptide and multi-arm β-cyclodextrin into the test tube, and controlling the concentration of the final linear cationic oligopeptide to 15-60 μM. Placing the prepared sample in the constant temperature shaker at 37° C. for culture, and controlling the revolution of the shaker to be 180 rpm. Determining the corresponding optical density (OD600) of the culture solution at different times (0-540 min) with a nucleic acid protein analyzer to evaluate the antibacterial activity of the cross-linked aggregates.
(§4) Preparation of LB liquid culture medium: dissolving 10 g of peptone, 5 g of yeast extract and 10 g of sodium chloride in 980 mL of redistilled water, and performing high temperature sterilization on same at 121° C. for 20 min to obtain a fresh LB liquid culture medium. Picking Escherichia coli (BL21-gold (DE3),) into 25 mL (containing 25 μL of ampicillin) of the above fresh LB liquid culture medium, placing in a constant temperature shaker with a revolution of 180 rpm and a temperature of 37° C. for culture for 12 h. Then diluting the obtained Escherichia coli culture solution with the fresh LB liquid culture medium to an OD600 of 0.035.
(§5) respectively taking 4 parts of the sterilized Escherichia coli culture solution (2.0 mL each) into 4 sterile test tubes, numbered as 1, 2, 3, and 4. […]

Bacillus subtilis = system: Bacillus subtilis
Experimental: as §1, §2, §3, §4, §5

Pseudomonas aeruginosa = system: Pseudomonas aeruginosa
Experimental: as §1, §2, §3, §4, §5

[1] = system: Escherichia coli (BL21-gold (DE3))
Experimental: as §1, §2, §3, §4, §5

[2] = Embodiment 3, 37° C., azoKLKLKLKazo-NH2 30 μM, three-arm β-cyclodextrin 20 μM
[3] = Embodiment 7, 37° C., azoRARVRazo-NH2 50 μM, three-arm β-cyclodextrin 33.33 μM
[4] = Embodiment 2, 37° C., peptide 30 μM, cyclodextrin 30 μM
[5] = Embodiment 9, 37° C., azoKVKVKVKazo-NH2 30 μM, three-arm β-cyclodextrin 10 μM, two-arm β-cyclodextrin 15 μM
[6] = Embodiment 4, 37° C., azoRARARVRazo-NH2 30 μM, three-arm β-cyclodextrin 20 μM
[7] = Embodiment 6, 37° C., azoKAKAKazo-NH2 60 μM, three-arm β-cyclodextrin 40 μM
[8] = Embodiment 5, 37° C., azoRIRIRARazo-NH2 20 μM, two-arm β-cyclodextrin 20 μM

| Compound | optical density (OD600) at end of culture (Staphylococcus aureus; [2]) | optical density (OD600) at start of culture (Staphylococcus aureus; [2]) | optical density (OD600) at end of culture (Staphylococcus aureus; [3]) | optical density (OD600) at start of culture (Staphylococcus aureus; [3]) | optical density (OD600) at end of culture (Bacillus subtilis; [4]) | optical density (OD600) at start of culture (Bacillus subtilis; [4]) | optical density (OD600) at end of culture (Bacillus subtilis; [5]) | optical density (OD600) at start of culture (Bacillus subtilis; [5]) | optical density (OD600) at end of culture (Pseudomonas aeruginosa; [6]) | optical density (OD600) at start of culture (Pseudomonas aeruginosa; [6]) | optical density (OD600) at end of culture (Pseudomonas aeruginosa; [7]) | optical density (OD600) at start of culture (Pseudomonas aeruginosa; [7]) | optical density (OD600) at start of incubation ([1]; Embodiment 1, 37° C., 0 min, azoKVKVKVKazo-NH2 30 μM, three-arm β-cyclodextrin 20 μM) | optical density (OD600) at end of incubation ([1]; Embodiment 1, 37° C., 9 h (540 min), azoKVKVKVKazo-NH2 30 μM, three-arm β-cyclodextrin 20 μM) | optical density (OD600) at end of culture [1, 8] | optical density (OD600) at start of culture [1, 8] |
| --- | --- | --- | --- | --- | --- | --- | --- | --- | --- | --- | --- | --- | --- | --- | --- | --- |
| OCC1OC2OC3C(CO)OC(OC4C(CO)OC(OC5C(Cn6cc(-c7cc(-c8cn(CC9OC%10OC%11C(CO)OC(OC%12C(CO)OC(OC%13C(CO)OC(OC%14C(CO)OC(OC%15C(CO)OC(OC%16C(CO)OC(OC9C(O)C%10O)C(O)C%16O)C(O)C%15O)C(O)C%14O)C(O)C%13O)C(O)C%12O)C(O)C%11O)nn8)cc(-c8cn(CC9OC%10OC%11C(CO)OC(OC%12C(CO)OC(OC%13C(CO)OC(OC%14C(CO)OC(OC%15C(CO)OC(OC%16C(CO)OC(OC9C(O)C%10O)C(O)C%16O)C(O)C%15O)C(O)C%14O)C(O)C%13O)C(O)C%12O)C(O)C%11O)nn8)c7)nn6)OC(OC6C(CO)OC(OC7C(CO)OC(OC8C(CO)OC(OC1C(O)C2O)C(O)C8O)C(O)C7O)C(O)C6O)C(O)C5O)C(O)C4O)C(O)C3O (stereo not drawn) [three-arm β-cyclodextrin] | 1.25 | 0.043 | 1.22 | 0.041 | 1.15 | 0.036 | 1.23 | 0.039 | 1.15 | 0.039 | 1.25 | 0.035 | 0.043 | 1.61 |  |  |
| OCC1OC2OC3C(CO)OC(OC4C(CO)OC(OC5C(Cn6cc(COc7ccc(OCc8cn(CC9OC%10OC%11C(CO)OC(OC%12C(CO)OC(OC%13C(CO)OC(OC%14C(CO)OC(OC%15C(CO)OC(OC%16C(CO)OC(OC9C(O)C%10O)C(O)C%16O)C(O)C%15O)C(O)C%14O)C(O)C%13O)C(O)C%12O)C(O)C%11O)nn8)cc7)nn6)OC(OC6C(CO)OC(OC7C(CO)OC(OC8C(CO)OC(OC1C(O)C2O)C(O)C8O)C(O)C7O)C(O)C6O)C(O)C5O)C(O)C4O)C(O)C3O (stereo not drawn) [two-arm β-cyclodextrin] |  |  |  |  |  |  |  |  |  |  |  |  |  |  | 1.21 | 0.034 |
